Source: patent US12203089B2, “Plants having increased tolerance to herbicides” (BASF SE, priority 2015, dated 2025)

How the values were obtained:
Assay type in all cases: in vivo
[1] = test system: Arabidopsis thaliana expressing AtCesA1_G1009D_G1013R (SEQ ID 1); assay: 48-well plate growth inhibition, T2 seeds, tolerance factor; details: based on IC50 values of growth inhibition, seven to ten days after seeding
Protocol: (§1) Transgenic Arabidopsis thaliana plants (T2) are assayed for improved tolerance to azine herbicides like e. g. 6-cyclopentyl-N4-(2,3,4,5,6-pentafluorophenyl)-1,3,5-triazine-2,4-diamine in 48-well plates. Therefore, T2 seeds are surface sterilized by stirring for 5 min in ethanol+water (70+30 by volume), rinsing one time with ethanol+water (70+30 by volume) and two times with sterile, deionized water. The seeds are resuspended in 0.1% agar dissolved in water (w/v) Four to five seeds per well are plated on solid nutrient medium consisting of half-strength murashige skoog nutrient solution, pH 5.8 (Murashige and Skoog (1962) Physiologia Plantarum 15: 473-497). Compounds are dissolved in dimethylsulfoxid (DMSO) and added to the medium prior solidification (final DMSO concentration 0.1%). Multi well plates are incubated in a growth chamber at 22° C., 75% relative humidity and 110 μmol Phot*m^−2*s^−1 with 14:10 h light:dark photoperiod. Growth inhibition is evaluated seven to ten days after seeding in comparison to wild type plants. Tolerance factors are calculated based on IC50 values of growth inhibition of transformed versus non-transformed Arabidopsis plants.

[2] = test system: Arabidopsis thaliana expressing AtCesA3_wt (SEQ ID 3); assay: as above; details: based on IC50 values of growth inhibition, seven to ten days after seeding
Protocol: as §1

[3] = test system: Arabidopsis thaliana expressing AtCesA3_S983F_S1040L (SEQ ID 3); assay: as above; details: based on IC50 values of growth inhibition, seven to ten days after seeding
Protocol: as §1

[4] = test system: Arabidopsis thaliana expressing AtCesA1_wt (SEQ ID 1); assay: as above; details: based on IC50 values of growth inhibition, seven to ten days after seeding
Protocol: as §1

[5] = test system: Arabidopsis thaliana expressing AtCesA3_S983F_S1037F (SEQ ID 3); assay: as above; details: based on IC50 values of growth inhibition, seven to ten days after seeding
Protocol: as §1

[6] = test system: Arabidopsis thaliana expressing AtCesA1_P1010L_G1013R (SEQ ID 1); assay: as above; details: based on IC50 values of growth inhibition, seven to ten days after seeding
Protocol: as §1

[7] = test system: Brassica napus expressing BnaAnng01240D (SEQ ID 20) variant S1041L; assay: 6-well plate injury test, T1 seeds on vermiculite; details: 7 days after treatment
Protocol: Transgenic Brassica napus plants are assayed for improved tolerance to azine herbicides like e. g. 6-cyclopentyl-N4-(2,3,4,5,6-pentafluorophenyl)-1,3,5-triazine-2,4-diamine in 6-well plates. Therefore, 5-6 T1 seeds are sown on vermiculite and watered with half-strength murashige skoog nutrient solution, pH 5.8 (Murashige and Skoog (1962) Physiologia Plantarum 15: 473-497). Compounds are dissolved in dimethylsulfoxid (DMSO) and added to the medium (final DMSO concentration 0.1%). Multi well plates are incubated in a growth chamber at 22° C., 75% relative humidity and 110 μmol Phot*m^−2*s^−1 with 14: 10 h light: dark photoperiod. Growth inhibition is evaluated seven to ten days after seeding in comparison to wild type plants. Plant injury is rated on a scale of 0% to 100%, 0% being no injury and 100% being complete death.

[8] = test system: Brassica napus wildtype; assay: Greenhouse herbicide tolerance, post emergent; details: 7 days after treatment
Protocol: (§2) T1/T2 transgenic plants of Brassica napus containing cellulose synthase sequences or mutated gene variants thereof are tested for improved tolerance to herbicides in greenhouse studies with azine herbicides. For the pre-emergence treatment, the herbicides are applied directly after sowing by means of finely distributing nozzles. The containers are irrigated gently to promote germination and growth and subsequently covered with transparent plastic hoods until the plants have rooted. This cover causes uniform germination of the test plants, unless this has been impaired by the herbicides. For post emergence treatment, the test plants are first grown to a height of 3 to 15 cm, depending on the plant habit, and only then treated with the herbicides. For this purpose, the test plants are either sown directly, and grown in the same containers or they are first grown separately and transplanted into the test containers a few days prior to treatment.
(§3) Herbicide injury evaluations are taken at 1, 2 and 3 weeks after treatment. Plant biomass reduction is rated on a scale of 0% to 100%, 0% being no reduction of biomass compared to untreated control, and 100% being complete absence of biomass.

[9] = test system: Brassica napus expressing BnaA03g55200D (SEQ ID 12) variant S1038F; assay: Greenhouse herbicide tolerance, post emergent; details: 7 days after treatment
Protocol: as §2, §3

[10] = test system: Brassica napus expressing BnaA03g52020D (SEQ ID 15) variant G1015R; assay: Greenhouse herbicide tolerance, post emergent; details: 7 days after treatment
Protocol: as §2, §3

[11] = test system: Brassica napus expressing BnaAnng01240D (SEQ ID 20) variant S1038F; assay: Greenhouse herbicide tolerance, post emergent; details: 7 days after treatment
Protocol: as §2, §3

[12] = test system: Brassica napus expressing BnaA03g55200D (SEQ ID 12) variant S1041L; assay: Greenhouse herbicide tolerance, post emergent; details: 7 days after treatment
Protocol: as §2, §3

[13] = test system: Brassica napus expressing BnaA01g04600D (SEQ ID 21) variant G1012R; assay: Greenhouse herbicide tolerance, post emergent; details: 7 days after treatment
Protocol: as §2, §3

[14] = BnaAnng01240D S1041L event 1, 5*10^-8M
[15] = BnaAnng01240D S1041L event 1, 10^-6M
[16] = BnaAnng01240D S1041L event 1, 10^-7M
[17] = BnaAnng01240D S1041L event 1, 10^-8M

With `Nc1nc(Nc2c(F)c(F)c(F)c(F)c2F)nc(C2CCCC2)n1` [6-cyclopentyl-N4-(2,3,4,5,6-pentafluorophenyl)-1,3,5-triazine-2,4-diamine] the “Relative tolerance rate as compared to non-transgenic Arabidopsis plants (non-transgenic = 1.0)” value (shortened to “Relative tolerance rate … (non-transgenic = 1.0)”) [1] was 1, the “Relative tolerance rate … (non-transgenic = 1.0)” value [2] was 1 and the “Relative tolerance rate … (non-transgenic = 1.0)” value [3] was 10. The “Relative tolerance rate … (non-transgenic = 1.0)” value [4] was 1, the “Relative tolerance rate … (non-transgenic = 1.0)” value [5] was 10 and the “Relative tolerance rate … (non-transgenic = 1.0)” value [6] was 30. The average phytotox value [7, 14] was 55%, the average phytotox value [7, 15] was 80% and the average phytotox value [7, 16] was 70%. For the same compound, the average phytotox value [7, 17] was 0%, the average phytotox value ([7]; BnaAnng01240D S1041L event 1, 10^-9M) was 0% and the average phytotox value ([7]; BnaAnng01240D S1041L event 2, 5*10^-8M) was 65%. For the same compound, the average phytotox value ([7]; BnaAnng01240D S1041L event 2, 10^-6M) was 80%, the average phytotox value ([7]; BnaAnng01240D S1041L event 2, 10^-7M) was 80% and the average phytotox value ([7]; BnaAnng01240D S1041L event 2, 10^-8M) was 0%. The average phytotox value ([7]; BnaAnng01240D S1041L event 2, 10^-9M) was 0%, the average phytotox value ([8]; 3.9 g/ha) was 23% and the average phytotox value ([8]; 7.8 g/ha) was 34%. The average phytotox value ([8]; 15.6 g/ha) was 59%, the average phytotox value ([8]; 31.25 g/ha) was 73% and the average phytotox value ([9]; 1st listed line, 3.9 g/ha) was 23%. It also gave an average phytotox value ([9]; 1st listed line, 7.8 g/ha) of 25%, an average phytotox value ([9]; 1st listed line, 15.6 g/ha) of 29% and an average phytotox value ([9]; 1st listed line, 31.25 g/ha) of 34%. The average phytotox value ([9]; 2nd listed line, 3.9 g/ha) was 7%, the average phytotox value ([9]; 2nd listed line, 7.8 g/ha) was 19% and the average phytotox value ([9]; 2nd listed line, 15.6 g/ha) was 20%. The average phytotox value ([9]; 2nd listed line, 31.25 g/ha) was 44%, the average phytotox value ([10]; 1st listed line, 3.9 g/ha) was 18% and the average phytotox value ([10]; 1st listed line, 7.8 g/ha) was 43%. For the same compound, the average phytotox value ([10]; 1st listed line, 15.6 g/ha) was 41%, the average phytotox value ([10]; 1st listed line, 31.25 g/ha) was 53% and the average phytotox value ([10]; 2nd listed line, 3.9 g/ha) was 37%. For the same compound, the average phytotox value ([10]; 2nd listed line, 7.8 g/ha) was 61%, the average phytotox value ([10]; 2nd listed line, 15.6 g/ha) was 45% and the average phytotox value ([10]; 2nd listed line, 31.25 g/ha) was 67%. For the same compound, the average phytotox value ([11]; 1st listed line, 3.9 g/ha) was 1%, the average phytotox value ([11]; 1st listed line, 7.8 g/ha) was 5% and the average phytotox value ([11]; 1st listed line, 15.6 g/ha) was 8%. For the same compound, the average phytotox value ([11]; 1st listed line, 31.25 g/ha) was 27%, the average phytotox value ([11]; 2nd listed line, 3.9 g/ha) was 1% and the average phytotox value ([11]; 2nd listed line, 7.8 g/ha) was 10%. It also gave an average phytotox value ([11]; 2nd listed line, 15.6 g/ha) of 41%, an average phytotox value ([11]; 2nd listed line, 31.25 g/ha) of 50% and an average phytotox value ([12]; 3.9 g/ha) of 15%. It also gave an average phytotox value ([12]; 7.8 g/ha) of 27%, an average phytotox value ([12]; 15.6 g/ha) of 42% and an average phytotox value ([12]; 31.25 g/ha) of 51%. For the same compound, the average phytotox value ([13]; 3.9 g/ha) was 17%, the average phytotox value ([13]; 7.8 g/ha) was 35% and the average phytotox value ([13]; 15.6 g/ha) was 35%. It also gave an average phytotox value ([13]; 31.25 g/ha) of 60%.
In the case of `Nc1nc(Nc2nc(F)c(F)c(Cl)c2F)nc(C2(F)CCCC2)n1` [N2-(4-chloro-3,5,6-trifluoro-2-pyridyl)-6-(1-fluorocyclopentyl)-1,3,5-triazine-2,4-diamine], the “Relative tolerance rate … (non-transgenic = 1.0)” value [1] is reported as 1, the “Relative tolerance rate … (non-transgenic = 1.0)” value [2] is reported as 1 and the “Relative tolerance rate … (non-transgenic = 1.0)” value [3] is reported as 4. For the same compound, the “Relative tolerance rate … (non-transgenic = 1.0)” value [4] was 2, the “Relative tolerance rate … (non-transgenic = 1.0)” value [5] was 5 and the “Relative tolerance rate … (non-transgenic = 1.0)” value [6] was 1. It also gave an average phytotox value ([7]; BnaAnng01240D S1041L event 1, 5*10-7) of 90%, an average phytotox value [7, 14] of 0% and an average phytotox value [7, 15] of 90%. For the same compound, the average phytotox value [7, 16] was 10%, the average phytotox value [7, 17] was 0% and the average phytotox value ([8]; 7.8 g/ha) was 42%. It also gave an average phytotox value ([8]; 15.6 g/ha) of 56%, an average phytotox value ([8]; 31.25 g/ha) of 70% and an average phytotox value ([8]; 62.5 g/ha) of 83%. For the same compound, the average phytotox value ([9]; 1st listed line, 7.8 g/ha) was 8%, the average phytotox value ([9]; 1st listed line, 15.6 g/ha) was 6% and the average phytotox value ([9]; 1st listed line, 31.25 g/ha) was 47%. The average phytotox value ([9]; 1st listed line, 62.5 g/ha) was 54%, the average phytotox value ([9]; 2nd listed line, 7.8 g/ha) was 21% and the average phytotox value ([9]; 2nd listed line, 15.6 g/ha) was 51%. The average phytotox value ([9]; 2nd listed line, 31.25 g/ha) was 47%, the average phytotox value ([9]; 2nd listed line, 62.5 g/ha) was 68% and the average phytotox value ([10]; 1st listed line, 7.8 g/ha) was 34%. The average phytotox value ([10]; 1st listed line, 15.6 g/ha) was 43%, the average phytotox value ([10]; 1st listed line, 31.25 g/ha) was 50% and the average phytotox value ([10]; 1st listed line, 62.5 g/ha) was 73%. The average phytotox value ([10]; 2nd listed line, 7.8 g/ha) was 16%, the average phytotox value ([10]; 2nd listed line, 15.6 g/ha) was 41% and the average phytotox value ([10]; 2nd listed line, 31.25 g/ha) was 62%. It also gave an average phytotox value ([10]; 2nd listed line, 62.5 g/ha) of 72%, an average phytotox value ([11]; 1st listed line, 7.8 g/ha) of 7% and an average phytotox value ([11]; 1st listed line, 15.6 g/ha) of 17%. For the same compound, the average phytotox value ([11]; 1st listed line, 31.25 g/ha) was 47%, the average phytotox value ([11]; 1st listed line, 62.5 g/ha) was 54% and the average phytotox value ([11]; 2nd listed line, 7.8 g/ha) was 10%. For the same compound, the average phytotox value ([11]; 2nd listed line, 15.6 g/ha) was 33%, the average phytotox value ([11]; 2nd listed line, 31.25 g/ha) was 68% and the average phytotox value ([11]; 2nd listed line, 62.5 g/ha) was 71%. It also gave an average phytotox value ([12]; 7.8 g/ha) of 24%, an average phytotox value ([12]; 15.6 g/ha) of 53% and an average phytotox value ([12]; 31.25 g/ha) of 62%. The average phytotox value ([12]; 62.5 g/ha) was 76%, the average phytotox value ([13]; 7.8 g/ha) was 34% and the average phytotox value ([13]; 15.6 g/ha) was 61%. For the same compound, the average phytotox value ([13]; 31.25 g/ha) was 65% and the average phytotox value ([13]; 62.5 g/ha) was 72%.
